The text below walks through data of patent US10174037B2, “Dihydropyrazolopyrimidinone compounds as PDE2 inhibitors” (Merck Sharp & Dohme Corp., priority 2015, dated 2019).

The target of the assay is human PDE2A1 (Homo sapiens (Human), UniProt O00408). The assay is described as follows: PDE selectivity IMAP FP assay, human PDE2A1. Conditions: Human PDE2; Lab B; read-out: Human PDE2 Ki (nM) Lab B. The class given is biochemical. As for the experimental part: Selectivity for PDE2, as compared to other PDE families, was assessed using the IMAP® technology. Human PDE10A2 enzyme was prepared from cytosolic fractions of transiently transfected HEK cells.
A Labcyte POD 810 (Labcyte, Sunnyvale, Calif.) was used to dispense 200 nL from each well of the titration plate to make eleven copies of the assay plate for each titration, one copy for each PDE enzyme. A solution of each enzyme (dilution from aliquots, sufficient to produce 20% substrate conversion) and a separate solution of FAM-labeled cAMP or FAM-labeled cGMP from Molecular Devices (Sunnyvale, Calif., product # R7506 or cGMP#R7508), at a final concentration of 50 nM were made in the assay buffer (10 mM Tris HCl, pH 7.2, 10 mM MgCl2, 0.05% NaN3 0.01% Tween-20, and 1 mM DTT). Note that the substrate for PDE2 is 50 nM FAM cAMP containing 1000 nM of cGMP. The enzyme and the substrate were then added to the assay plates in two consecutive additions of 10 μL and then shaken to mix. The reaction was allowed to proceed at room temperature for 60 minutes. A binding solution was then made from the kit components, comprised of 80% Solution A, 20% Solution B and binding reagent at a volume of 1/600 the total binding solution. The enzymatic reaction was stopped by addition of 60 μL of the binding solution to each well of the assay plate. […] The plates were incubated at room temperature for one hour, then the parallel and perpendicular fluorescence was measured using a Tecan Genios Pro plate reader (Tecan, Switzerland). […] The intrinsic PDE2 inhibitory activity of a compound which may be used in accordance with the present invention may be determined by these assays. […]
The PDE2 Ki is a measure of the ability of the test compound to inhibit the action of the PDE2 enzyme.

Chain of human PDE2A1 (O00408 other isoform, or with tags, fused parts or gaps): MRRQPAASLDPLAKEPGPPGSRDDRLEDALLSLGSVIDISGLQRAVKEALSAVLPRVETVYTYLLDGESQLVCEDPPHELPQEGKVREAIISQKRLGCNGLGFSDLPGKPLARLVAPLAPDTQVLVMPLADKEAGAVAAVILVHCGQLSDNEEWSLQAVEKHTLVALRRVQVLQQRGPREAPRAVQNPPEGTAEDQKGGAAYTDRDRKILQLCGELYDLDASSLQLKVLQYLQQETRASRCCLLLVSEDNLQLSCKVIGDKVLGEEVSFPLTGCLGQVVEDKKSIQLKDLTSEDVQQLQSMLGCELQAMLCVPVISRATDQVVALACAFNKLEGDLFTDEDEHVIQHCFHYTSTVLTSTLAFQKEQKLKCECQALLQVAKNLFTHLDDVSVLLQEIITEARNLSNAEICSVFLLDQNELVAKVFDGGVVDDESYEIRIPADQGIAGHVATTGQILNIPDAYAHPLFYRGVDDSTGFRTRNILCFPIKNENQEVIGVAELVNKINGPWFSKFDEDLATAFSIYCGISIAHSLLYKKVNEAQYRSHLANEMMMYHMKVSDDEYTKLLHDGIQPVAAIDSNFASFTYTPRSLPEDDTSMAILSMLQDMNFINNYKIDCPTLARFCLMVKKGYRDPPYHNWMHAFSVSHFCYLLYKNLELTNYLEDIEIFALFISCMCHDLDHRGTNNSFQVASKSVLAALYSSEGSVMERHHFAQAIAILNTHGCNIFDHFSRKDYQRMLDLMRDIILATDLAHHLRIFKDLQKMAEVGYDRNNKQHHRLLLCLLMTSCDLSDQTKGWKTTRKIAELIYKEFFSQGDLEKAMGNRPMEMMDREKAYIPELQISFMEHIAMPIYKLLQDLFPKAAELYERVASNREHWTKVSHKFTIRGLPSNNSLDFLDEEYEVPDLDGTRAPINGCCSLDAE

The term Ki denotes the dissociation constant of the complex between target and ligand, obtained from inhibition or displacement. In the case of `CN(C)c1nc2c(c(CO)nn2C(c2ccc(C(F)F)c(F)c2)C2CC2)c(=O)[nH]1` (single isomer, unassigned) [Example 153, (S)- or (R)-1-(Cyclopropyl(4-(difluoromethyl)-3-fluorophenyl)methyl)-6-(dimethylamino)-3-(hydroxymethyl)-1H-pyrazolo[3,4-d]pyrimidin-4(5H)-one], the Ki was found to be 3 nM.
For the compound `CCC(c1ccc(C(F)(F)F)cc1)n1nc(CF)c2c(=O)[nH]c(N(C)C)nc21` (single isomer, unassigned) [Example 172, (R)- or (S)-6-(Dimethylamino)-3-(fluoromethyl)-1-(1-(4-(trifluoromethyl)phenyl)propyl)-1H-pyrazolo[3,4-d]pyrimidin-4(5H)-one], the Ki came out at 2.2 nM.
As to `CC(c1ccc(CC(F)(F)F)cc1)n1nc(CF)c2c(=O)[nH]c(N(C)C)nc21` (single isomer, unassigned) [Example 174, (R)- or (S)-6-(Dimethylamino)-3-(fluoromethyl)-1-(1-(4-(2,2,2-trifluoroethyl)phenyl)ethyl)-1H-pyrazolo[3,4-d]pyrimidin-4(5H)-one], the Ki was 2.7 nM.
For the compound `CC(c1ccc(CC(F)(F)F)cc1)n1nc(CF)c2c(=O)[nH]c(N(C)C)nc21` (single isomer, unassigned) [Example 175, (S)- or (R)-6-(Dimethylamino)-3-(fluoromethyl)-1-(1-(4-(2,2,2-trifluoroethyl)phenyl)ethyl)-1H-pyrazolo[3,4-d]pyrimidin-4(5H)-one], the Ki is 0.39 nM.
For the compound `CN(C)c1nc2c(c(CF)nn2C(c2ccc(C(F)(F)F)cc2)C2CC2)c(=O)[nH]1` (single isomer, unassigned) [Example 178, (R)- or (S)-1-(Cyclopropyl(4-(trifluoromethyl)phenyl)methyl)-6-(dimethylamino)-3-(fluoromethyl)-1H-pyrazolo[3,4-d]pyrimidin-4(5H)-one], the Ki turned out to be 1.1 nM.
Turning to `CN(C)c1nc2c(c(CF)nn2C(c2ccc(C(F)(F)F)c(F)c2)C2CC2)c(=O)[nH]1` (single isomer, unassigned) [Example 180, (R)- or (S)-1-(Cyclopropyl(3-fluoro-4-(trifluoromethyl)phenyl)methyl)-6-(dimethylamino)-3-(fluoromethyl)-1H-pyrazolo[3,4-d]pyrimidin-4(5H)-one], the Ki stood at 1.2 nM.
On to `CC(c1ccc(C(F)(F)F)cc1F)n1nc(CF)c2c(=O)[nH]c(N(C)C)nc21` (single isomer, unassigned) [Example 187, (S)- or (R)-6-(Dimethylamino)-1-(1-(2-fluoro-4-(trifluoromethyl)phenyl)ethyl)-3-(fluoromethyl)-1H-pyrazolo[3,4-d]pyrimidin-4(5H)-one], for which the Ki is 19 nM.
As for `CC(c1ccc(C(F)F)cc1)n1nc(CF)c2c(=O)[nH]c(N(C)C)nc21` (single isomer, unassigned) [Example 190, (R)- or (S)-1-(1-(4-(Difluoromethyl)phenyl)ethyl)-6-(dimethylamino)-3-(fluoromethyl)-1H-pyrazolo[3,4-d]pyrimidin-4(5H)-one], the Ki is 27 nM.
Take `CC(c1ccc(C(C)(F)F)cc1)n1nc(CF)c2c(=O)[nH]c(N(C)C)nc21` (single isomer, unassigned) [Example 194, (R)- or (S)-1-(1-(4-(1,1-Difluoroethyl)phenyl)ethyl)-6-(dimethylamino)-3-(fluoromethyl)-1H-pyrazolo[3,4-d]pyrimidin-4(5H)-one]: the Ki was found to be 6.1 nM.
For `CC(c1ccc(C(F)F)c(F)c1)n1nc(CF)c2c(=O)[nH]c(N(C)C)nc21` (single isomer, unassigned) [Example 197, (S)- or (R)-1-(1-(4-(Difiuoromethyl)-3-fluorophenyl)ethyl)-6-(dimethylamino)-3-(fluoromethyl)-1H-pyrazolo[3,4-d]pyrimidin-4(5H)-one], the Ki came to 18 nM.
For the compound `CCC(c1ccc(C(F)(F)F)cc1F)n1nc(CF)c2c(=O)[nH]c(N(C)C)nc21` (single isomer, unassigned) [Example 199, (S)- or (R)-6-(Dimethylamino)-1-(1-(2-fluoro-4-(trifluoromethyl)phenyl)propyl)-3-(fluoromethyl)-1H-pyrazolo[3,4-d]pyrimidin-4(5H)-one], the Ki was 1.1 nM.
With `CC(C)C(c1ccc(C(F)(F)F)cc1F)n1nc(CF)c2c(=O)[nH]c(N(C)C)nc21` (single isomer, unassigned) [Example 201, (S)- or (R)-6-(Dimethylamino)-1-(1-(2-fluoro-4-(trifluoromethyl)phenyl)-2-methylpropyl)-3-(fluoromethyl)-1H-pyrazolo[3,4-d]pyrimidin-4(5H)-one], the Ki was 1.2 nM.
For `CCC(c1ccc(C(C)(F)F)cc1)n1nc(CF)c2c(=O)[nH]c(N(C)C)nc21` (single isomer, unassigned) [Example 204, (R)- or (S)-1-(1-(4-(1,1-Difluoroethyl)phenyl)propyl)-6-(dimethylamino)-3-(fluoromethyl)-1H-pyrazolo[3,4-d]pyrimidin-4(5H)-one], the Ki came to 1.4 nM.
With `CC(c1ccc(C(C)(F)F)cc1F)n1nc(CF)c2c(=O)[nH]c(N(C)C)nc21` (single isomer, unassigned) [Example 208, (R)- or (S)-1-(1-(4-(1,1-Difluoroethyl)-2-fluorophenyl)ethyl)-6-(dimethylamino)-3-(fluoromethyl)-1H-pyrazolo[3,4-d]pyrimidin-4(5H)-one], the Ki turned out to be 20 nM.
Then `CC(c1ccc(C(C)(F)F)c(F)c1)n1nc(CF)c2c(=O)[nH]c(N(C)C)nc21` (single isomer, unassigned) [Example 210, (R)- or (S)-1-(1-(4-(1,1-Difluoroethyl)-3-fluorophenyl)ethyl)-6-(dimethylamino)-3-(fluoromethyl)-1H-pyrazolo[3,4-d]pyrimidin-4(5H)-one], with 3.3 nM; and `CC(c1ccc(C(C)(F)F)c(F)c1)n1nc(CF)c2c(=O)[nH]c(N(C)C)nc21` (single isomer, unassigned) [Example 211, (S)- or (R)-1-(1-(4-(1,1-Difluoroethyl)-3-fluorophenyl)ethyl)-6-(dimethylamino)-3-(fluoromethyl)-1H-pyrazolo[3,4-d]pyrimidin-4(5H)-one], with 0.048 nM; and `CCC(c1ccc(C(C)(F)F)cc1F)n1nc(CF)c2c(=O)[nH]c(N(C)C)nc21` (single isomer, unassigned) [Example 215, (S)- or (R)-1-(1-(4-(1,1-Difluoroethyl)-2-fluorophenyl)propyl)-6-(dimethylamino)-3-(fluoromethyl)-1H-pyrazolo[3,4-d]pyrimidin-4(5H)-one], with 0.98 nM.
Turning to `CCC(c1ccc(C(F)(F)F)c(F)c1)n1nc(CF)c2c(=O)[nH]c(N(C)C)nc21` (single isomer, unassigned) [Example 223, (S)- or (R)-6-(Dimethylamino)-1-(1-(3-fluoro-4-(trifluoromethyl)phenyl)propyl)-3-(fluoromethyl)-1H-pyrazolo[3,4-d]pyrimidin-4(5H)-one], the Ki turned out to be 1.8 nM.
Regarding `CC(C)(C)C(c1ccc(C(F)(F)F)c(F)c1)n1nc(CC(F)(F)F)c2c(=O)[nH]c(O)nc21` (single isomer, unassigned) [Example 246, (R)- or (S)-1-(1-(3-Fluoro-4-(trifluoromethyl)phenyl)-2,2-dimethylpropyl)-6-hydroxy-3-(2,2,2-trifluoroethyl)-1H-pyrazolo[3,4-d]pyrimidin-4(5H)-one], the Ki worked out at 408 nM.
In the case of `CC(C)(C)C(c1ccc(C(F)(F)F)c(F)c1)n1nc(CC(F)(F)F)c2c(=O)[nH]c(O)nc21` (single isomer, unassigned) [Example 247, (S)- or (R)-1-(1-(3-Fluoro-4-(trifluoromethyl)phenyl)-2,2-dimethylpropyl)-6-hydroxy-3-(2,2,2-trifluoroethyl)-1H-pyrazolo[3,4-d]pyrimidin-4(5H)-one], the Ki is above 2960 nM.
On to `CC1(C(c2ccc(C(F)(F)F)c(F)c2)n2nc(CC(F)(F)F)c3c(=O)[nH]c(O)nc32)CC1` (single isomer, unassigned) [Example 248, (R)- or (S)-1-((3-Fluoro-4-(trifluoromethyl)phenyl)(1-methylcyclopropyl)methyl)-6-hydroxy-3-(2,2,2-trifluoroethyl)-1H-pyrazolo[3,4-d]pyrimidin-4(5H)-one], for which the Ki was found to be 47 nM.
Regarding `CC1(C(c2ccc(C(F)(F)F)c(F)c2)n2nc(CC(F)(F)F)c3c(=O)[nH]c(O)nc32)CC1` (single isomer, unassigned) [Example 249, (S)- or (R)-1-((3-Fluoro-4-(trifluoromethyl)phenyl)(1-methylcyclopropyl)methyl)-6-hydroxy-3-(2,2,2-trifluoroethyl)-1H-pyrazolo[3,4-d]pyrimidin-4(5H)-one], the Ki is 841 nM.
As to `O=c1[nH]c(O)nc2c1c(C(F)F)nn2C(CC(F)(F)F)c1ccc(C(F)(F)F)cc1` (single isomer, unassigned) [Example 271], the Ki was found to be 911 nM.
Then `O=c1[nH]c(O)nc2c1c(C(F)F)nn2C(CC(F)(F)F)c1ccc(C(F)(F)F)cc1` (single isomer, unassigned) [Example 272], with 43 nM.
